# Results reported in US12377101B2, “Combination therapies” (Mirati Therapeutics, Inc., priority 2018, dated 2025).
# Marks after values point to notes of the source that are not given here.
# Tests used:
# Assay type in all cases: in vivo, nude/nude mice
# H358 cells = experiment: H358 tumor bearing mice, single agents and combination
# Protocol: (§1) Immunocompromised nude/nude mice are inoculated in the right hind flank with cells or patient derived tumor samples harboring a KRas G12C mutation. When tumor volumes reach between 200-400 mm^3 in size, the mice are divided into four groups of 5-12 mice each. The first group is administered vehicle only. […] The fourth group is administered the single agent dose of the KRas G12C inhibitor in combination with the single agent dose of the SHP-2 inhibitor. […] Tumor volumes are measured using a caliper every two-three days and tumor volumes are calculated by the formula: 0.5×[…].
# (§2) 20 nude/nude mice per study were inoculated in the right hind limb with 5×10^6 SW1573 cells, KYSE410 cells or H358 cells.
# SW1573 cells = experiment: SW1573 tumor bearing mice, single agents and combination; settings: for tumor growth inhibition: Day 22, Compound 478 100 mg/kg or RMC-4550 30 mg/kg p.o. daily; for Average Tumor Volume: Compound 478 100 mg/kg, RMC-4550 30 mg/kg
# Protocol: as §1, §2
# H2122 cells = experiment: H2122 tumor bearing mice, single agents and combination; settings: for tumor growth inhibition: Day 29, Compound 478 100 mg/kg or RMC-4550 30 mg/kg p.o. daily; for Average Tumor Volume: Compound 478 100 mg/kg, RMC-4550 30 mg/kg
# Protocol: as §1
# Similarly, 25 nude/nude mice were inoculated in the right hind limb with 5×10^6 H2122 cells.
# KYSE410 cells = experiment: KYSE410 tumor bearing mice, single agents and combination; settings: for tumor growth inhibition: Day 22, Compound 478 100 mg/kg or RMC-4550 30 mg/kg p.o. daily; for Average Tumor Volume: Compound 478 100 mg/kg, RMC-4550 30 mg/kg
# Protocol: as §1, §2
# [1] = Study Day 0, p.o. daily, Compound 478 100 mg/kg, RMC-4550 30 mg/kg, 5 mice
# [2] = Study Day 4, p.o. daily, Compound 478 100 mg/kg, RMC-4550 30 mg/kg
# [3] = Study Day 6, p.o. daily, Compound 478 100 mg/kg, RMC-4550 30 mg/kg
# [4] = Study Day 8, p.o. daily, Compound 478 100 mg/kg, RMC-4550 30 mg/kg
# [5] = Study Day 12, p.o. daily, Compound 478 100 mg/kg, RMC-4550 30 mg/kg
# [6] = Study Day 15, p.o. daily, Compound 478 100 mg/kg, RMC-4550 30 mg/kg
# [7] = Study Day 18, p.o. daily, Compound 478 100 mg/kg, RMC-4550 30 mg/kg
# [8] = Study Day 20, p.o. daily, Compound 478 100 mg/kg, RMC-4550 30 mg/kg
# [9] = Study Day 22, p.o. daily, Compound 478 100 mg/kg, RMC-4550 30 mg/kg, RMC-4550 single agent: dosing was stopped after Day 22
# [10] = Study Day 0, p.o. daily, 5 mice
smiles,measurement,setting,value
C=C(F)C(=O)N1CCN(c2nc(OC[C@@H]3CCCN3C)nc3c2CCN(c2cccc4cccc(Cl)c24)C3)C[C@@H]1CC#N [Compound 478],tumor regression,"H358 cells; Day 22, Compound 478 100 mg/kg, alone or with RMC-4550 30 mg/kg, p.o. daily",68%
same,Average Tumor Volume,H358 cells; [1],335 mm^3
same,Average Tumor Volume,H358 cells; [2],277 mm^3
same,Average Tumor Volume,H358 cells; [3],244 mm^3
same,Average Tumor Volume,H358 cells; [4],200 mm^3
same,Average Tumor Volume,H358 cells; [5],156 mm^3
same,Average Tumor Volume,H358 cells; [6],133 mm^3
same,Average Tumor Volume,H358 cells; [7],120 mm^3
same,Average Tumor Volume,H358 cells; [8],113 mm^3
same,Average Tumor Volume,H358 cells; [9],109 mm^3
same,Average Tumor Volume,"H358 cells; Study Day 25, p.o. daily, Compound 478 100 mg/kg, RMC-4550 30 mg/kg",90 mm^3
same,Average Tumor Volume,"H358 cells; Study Day 27, p.o. daily, Compound 478 100 mg/kg, RMC-4550 30 mg/kg",92 mm^3
same,Average Tumor Volume,"H358 cells; Study Day 29, Compound 478 100 mg/kg, RMC-4550 30 mg/kg p.o.",81 mm^3
same,Average Tumor Volume,"H358 cells; Study Day 32, Compound 478 100 mg/kg, RMC-4550 30 mg/kg p.o.",82 mm^3
same,Average Tumor Volume,"H358 cells; Study Day 34, Compound 478 100 mg/kg, RMC-4550 30 mg/kg p.o.",84 mm^3
same,Average Tumor Volume,"H358 cells; Study Day 36, Compound 478 100 mg/kg, RMC-4550 30 mg/kg p.o.",81 mm^3
same,Average Tumor Volume,"H358 cells; Study Day 39, Compound 478 100 mg/kg, RMC-4550 30 mg/kg p.o.",73 mm^3
same,Average Tumor Volume,"H358 cells; Study Day 41, Compound 478 100 mg/kg, RMC-4550 30 mg/kg p.o.",58 mm^3
same,tumor growth inhibition,SW1573 cells,81%
same,Average Tumor Volume,SW1573 cells; [10],335 mm^3
same,Average Tumor Volume,"SW1573 cells; Study Day 2, p.o. daily",281 mm^3
same,Average Tumor Volume,"SW1573 cells; Study Day 4, p.o. daily",318 mm^3
same,Average Tumor Volume,"SW1573 cells; Study Day 9, p.o. daily",336 mm^3
same,Average Tumor Volume,"SW1573 cells; Study Day 14, p.o. daily",363 mm^3
same,Average Tumor Volume,"SW1573 cells; Study Day 21, p.o. daily",419 mm^3
same,Average Tumor Volume,"SW1573 cells; Study Day 22, p.o. daily",433 mm^3
same,tumor growth inhibition,H2122 cells,93%
same,Average Tumor Volume,"H2122 cells; Study Day 11, p.o. daily",382 mm^3
same,Average Tumor Volume,"H2122 cells; Study Day 21, p.o. daily",430 mm^3
same,tumor growth inhibition,KYSE410 cells,93%
same,Average Tumor Volume,KYSE410 cells; [10],312 mm^3
same,Average Tumor Volume,"KYSE410 cells; Study Day 2, p.o. daily",320 mm^3
same,Average Tumor Volume,"KYSE410 cells; Study Day 4, p.o. daily",302 mm^3
same,Average Tumor Volume,"KYSE410 cells; Study Day 7, p.o. daily",281 mm^3
same,Average Tumor Volume,"KYSE410 cells; Study Day 9, p.o. daily",265 mm^3
same,Average Tumor Volume,"KYSE410 cells; Study Day 11, p.o. daily",277 mm^3
same,Average Tumor Volume,"KYSE410 cells; Study Day 14, p.o. daily",340 mm^3
same,Average Tumor Volume,"KYSE410 cells; Study Day 18, p.o. daily",349 mm^3
same,Average Tumor Volume,"KYSE410 cells; Study Day 21, p.o. daily",384 mm^3
same,Average Tumor Volume,"KYSE410 cells; Study Day 22, p.o. daily",359 mm^3
Cc1nc(N2CCC3(CC2)CO[C@@H](C)[C@H]3N)c(CO)nc1-c1cccc(Cl)c1Cl [RMC-4550],tumor growth inhibition,"H358 cells; Day 22, RMC-4550 30 mg/kg p.o. daily",22%
same,Average Tumor Volume,H358 cells; [1],333 mm^3
same,Average Tumor Volume,H358 cells; [2],336 mm^3
same,Average Tumor Volume,H358 cells; [3],343 mm^3
same,Average Tumor Volume,H358 cells; [4],372 mm^3
same,Average Tumor Volume,H358 cells; [5],388 mm^3
same,Average Tumor Volume,H358 cells; [6],399 mm^3
same,Average Tumor Volume,H358 cells; [7],422 mm^3
same,Average Tumor Volume,H358 cells; [8],454 mm^3
same,Average Tumor Volume,H358 cells; [9],492‡ mm^3
same,tumor growth inhibition,SW1573 cells,68%
same,Average Tumor Volume,SW1573 cells; [10],336 mm^3
same,Average Tumor Volume,"SW1573 cells; Study Day 2, p.o. daily",280 mm^3
same,Average Tumor Volume,"SW1573 cells; Study Day 4, p.o. daily",286 mm^3
same,Average Tumor Volume,"SW1573 cells; Study Day 7, p.o. daily",336 mm^3
same,Average Tumor Volume,"SW1573 cells; Study Day 9, p.o. daily",305 mm^3
same,Average Tumor Volume,"SW1573 cells; Study Day 11, p.o. daily",326 mm^3
same,Average Tumor Volume,"SW1573 cells; Study Day 14, p.o. daily",418 mm^3
same,Average Tumor Volume,"SW1573 cells; Study Day 16, p.o. daily",421 mm^3
same,Average Tumor Volume,"SW1573 cells; Study Day 18, p.o. daily",375 mm^3
same,Average Tumor Volume,"SW1573 cells; Study Day 21, p.o. daily",392 mm^3
same,Average Tumor Volume,"SW1573 cells; Study Day 22, p.o. daily",510 mm^3
same,tumor growth inhibition,H2122 cells,47%
same,Average Tumor Volume,H2122 cells; [10],350 mm^3
same,Average Tumor Volume,"H2122 cells; Study Day 4, p.o. daily",515 mm^3
same,Average Tumor Volume,"H2122 cells; Study Day 6, p.o. daily",578 mm^3
same,Average Tumor Volume,"H2122 cells; Study Day 8, p.o. daily",614 mm^3
same,Average Tumor Volume,"H2122 cells; Study Day 11, p.o. daily",683 mm^3
same,Average Tumor Volume,"H2122 cells; Study Day 13, p.o. daily",750 mm^3
same,Average Tumor Volume,"H2122 cells; Study Day 15, p.o. daily",856 mm^3
same,Average Tumor Volume,"H2122 cells; Study Day 18, p.o. daily",880 mm^3
same,Average Tumor Volume,"H2122 cells; Study Day 21, p.o. daily",916 mm^3
same,Average Tumor Volume,"H2122 cells; Study Day 24, p.o. daily",1026 mm^3
same,Average Tumor Volume,"H2122 cells; Study Day 27, p.o. daily",1137 mm^3
same,Average Tumor Volume,"H2122 cells; Study Day 29, p.o. daily",1166 mm^3
same,tumor growth inhibition,KYSE410 cells,90%
same,Average Tumor Volume,KYSE410 cells; [10],314 mm^3
same,Average Tumor Volume,"KYSE410 cells; Study Day 2, p.o. daily",311 mm^3
same,Average Tumor Volume,"KYSE410 cells; Study Day 4, p.o. daily",316 mm^3
same,Average Tumor Volume,"KYSE410 cells; Study Day 7, p.o. daily",299 mm^3
same,Average Tumor Volume,"KYSE410 cells; Study Day 9, p.o. daily",316 mm^3
same,Average Tumor Volume,"KYSE410 cells; Study Day 11, p.o. daily",309 mm^3
same,Average Tumor Volume,"KYSE410 cells; Study Day 14, p.o. daily",309 mm^3
same,Average Tumor Volume,"KYSE410 cells; Study Day 18, p.o. daily",303 mm^3
same,Average Tumor Volume,"KYSE410 cells; Study Day 21, p.o. daily",372 mm^3
same,Average Tumor Volume,"KYSE410 cells; Study Day 22, p.o. daily",377 mm^3
